The source of these data is article PMC5392419 (Pharmacological research, 2017).

SMILES strings stand for the structures. pEC50: −log10 of the molar value.

Series [1] concerns the target T1, ATP-binding cassette subfamily G member 2 (ABCG2) (Homo sapiens, UniProt Q9UNQ0).
T1 sequence (Q9UNQ0 1-655): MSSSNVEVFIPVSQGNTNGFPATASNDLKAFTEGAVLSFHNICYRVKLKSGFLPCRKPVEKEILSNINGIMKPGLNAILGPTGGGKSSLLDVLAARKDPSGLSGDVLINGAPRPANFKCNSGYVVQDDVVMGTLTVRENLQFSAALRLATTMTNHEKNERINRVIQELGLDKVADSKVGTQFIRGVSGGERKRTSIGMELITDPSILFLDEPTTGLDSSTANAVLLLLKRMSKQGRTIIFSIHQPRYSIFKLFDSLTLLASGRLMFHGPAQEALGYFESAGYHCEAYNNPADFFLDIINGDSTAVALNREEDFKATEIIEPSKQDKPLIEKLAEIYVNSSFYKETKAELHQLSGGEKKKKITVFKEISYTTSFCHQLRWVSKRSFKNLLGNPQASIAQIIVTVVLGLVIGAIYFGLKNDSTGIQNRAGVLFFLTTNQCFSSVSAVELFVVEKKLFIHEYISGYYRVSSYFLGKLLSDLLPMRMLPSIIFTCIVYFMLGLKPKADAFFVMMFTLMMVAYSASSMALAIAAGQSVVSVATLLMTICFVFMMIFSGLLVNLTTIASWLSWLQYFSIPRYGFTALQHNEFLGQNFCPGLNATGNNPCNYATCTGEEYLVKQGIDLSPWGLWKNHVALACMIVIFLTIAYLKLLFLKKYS
Nature of the series: [3H]-mitoxantrone accumulation and efflux assay in ABCG2-overexpressing cells. The class given is cell-based.

For series [2], the target named is T1, ATP-binding cassette subfamily G member 2 (ABCG2). The experiment in a line: biochemical.

Regarding `COc1ccc2c3c([nH]c2c1)[C@H](C=C(C)C)N1C(=O)[C@@H]2CCCN2C(=O)[C@@H]1C3` [Fumitremorgin C], the “[3H]-mitoxantrone accumulation and efflux assay in ABCG2-overexpressing cells (1)” value in series [1] was “efficacy of cabozantinib on increasing intracellular accumulation of [^3H]-MX in resistant cell line is comparable to that of FTC”.
The pEC50 is −log10 of the EC50, conventionally taken in molar units. Higher therefore signals a small EC50. As for `COc1cc2nccc(Oc3ccc(NC(=O)C4(C(=O)Nc5ccc(F)cc5)CC4)cc3)c2cc1OC` [cabozantinib], in series [2], the pEC50 is 6.13.
